Laboratory results as given in the Deep4Chem optical property database.
Values belong to the compound of their own block, whether it stands above or below them.

Experiment: solvent given as SMILES

fluorescence lifetime (in ClC(Cl)Cl): 0.56 ns
Compound: CCCCCCn1c2cc(/C=C(\C#N)c3cccs3)ccc2c2ccc(/C=C(\C#N)c3cccs3)cc21

fluorescence lifetime (in CO): 21.6 ns
Compound: CCOC(=O)CCCCCn1c2ccccc2c(=O)c2cc3c(cc21)c(=O)c1ccccc1n3CCCCCC(=O)OCC

fluorescence lifetime (in ClCCl): 4.27 ns
Compound: C(#Cc1ccc2c(c1)c1cc(C#Cc3ccccc3)ccc1n2-c1cc2ccccc2c2ccccc12)c1ccccc1

fluorescence lifetime (in ClCCl): 4.1 ns
Compound: CC[B-]1(CC)c2cccc3cc4ccccc4c(c23)-c2cccc(C)[n+]21

fluorescence lifetime (in ClCCl): 3.6 ns
Compound: CCOC(=O)/N=c1/oc2cc(N(CC)CC)ccc2cc1C#N

fluorescence lifetime (in C1CCOC1): 2.3 ns
Compound: CC(C)(C)c1ccc(/C=C/c2ccc(N(c3ccc(/C=C/c4ccc(C(C)(C)C)cc4)cc3)c3ccc(-c4nc5ccccc5nc4-c4ccc(N(c5ccc(/C=C/c6ccc(C(C)(C)C)cc6)cc5)c5ccc(/C=C/c6ccc(C(C)(C)C)cc6)cc5)cc4)cc3)cc2)cc1

fluorescence lifetime (in CC#N): 1.85 ns | fluorescence lifetime (in CC(C)O): 0.6 ns | fluorescence lifetime (in CCO): 0.47 ns | fluorescence lifetime (in CCOC(C)=O): 2.01 ns | fluorescence lifetime (in CO): 0.34 ns
Compound: Nc1ccc2c(c1)C(=O)c1ccc(N)cc1C2=O

fluorescence lifetime (in C1CCOC1): 1.7 ns | fluorescence lifetime (in CC#N): 1.66 ns | fluorescence lifetime (in CN(C)C=O): 1.86 ns | fluorescence lifetime (in ClC(Cl)Cl): 1.78 ns | fluorescence lifetime (in c1ccccc1): 1.74 ns
Compound: CN(C)c1ccc(C#Cc2ccc(C#Cc3ccc(C#Cc4ccccc4C#N)cc3C#N)cc2C#N)cc1

fluorescence lifetime (in CC#N): 1.81 ns
Compound: Fc1nc(F)c(F)c(C#Cc2ccccc2C#Cc2c(F)c(F)nc(F)c2F)c1F

fluorescence lifetime (in C1CCCCC1): 2.4 ns | fluorescence lifetime (in CC#N): 5.1 ns | fluorescence lifetime (in CCCCCC): 1.9 ns | fluorescence lifetime (in CCO): 6.2 ns | fluorescence lifetime (in O): 0.045 ns | fluorescence lifetime (in OCC(F)(F)F): 0.11 ns
Compound: N#Cc1cccc(N)c1

fluorescence lifetime (in C1CCOC1): 4.8 ns
Compound: COc1ccc(-c2cnc3nn4ccccc4c3c2)cc1

fluorescence lifetime (in CCO): 1.94 ns
Compound: Cc1cc(C)c(-c2nnc(-c3ccc(-n4c5ccccc5c5ccccc54)c(C)c3)o2)c(C)c1

fluorescence lifetime (in C1CCOC1): 2.1 ns
Compound: C[Si](C)(C)C#CC1=CC2=c3cc(C#C[Si](C)(C)C)c4nc(C(F)(F)C(F)(F)C(F)(F)F)nc5c(C#C[Si](C)(C)C)cc(c3c54)C3=CC(C#C[Si](C)(C)C)=C4N=C(C(F)(F)C(F)(F)C(F)(F)F)N=C1C4C32 (stereo not given)

fluorescence lifetime (in CN(C)C=O): 0.57 ns
Compound: CCCCCCOc1ccc(N(c2ccc(OCCCCCC)cc2)c2ccc(-c3sc(-c4ccc(N(c5ccc(OCCCCCC)cc5)c5ccc(OCCCCCC)cc5)cc4)c4nc(-c5ccc(OC)cc5)c(-c5ccc(OC)cc5)nc34)cc2)cc1

fluorescence lifetime (in CCO): 0.25 ns | fluorescence lifetime (in ClCCl): 0.4 ns
Compound: N#Cc1cnc(-c2c3ccccc3c(-c3ccccc3)c3ccccc23)nc1

fluorescence lifetime (in ClCCl): 1.74 ns
Compound: CCCCn1c(-c2ccc(-c3nnc(-c4ccc5ccccc5c4)o3)cc2)nc(-c2ccccc2)c1-c1ccccc1

fluorescence lifetime (in CCO): 18.7 ns
Compound: Cc1cc2cc3ccccc3cc2cn1

fluorescence lifetime (in ClC(Cl)Cl): 2.6 ns
Compound: N=c1oc2cccc3c4c(-c5ccccc5)oc5cccc(c(c1-c1ccccc1)c23)c54

fluorescence lifetime (in CC#N): 1.47 ns
Compound: C(#Cc1ccccc1C#Cc1ccccc1)c1ccccc1

Compound: CCCCCCCCOc1ccc2c3cccc4c(OCCCCCCCC)ccc(c5cccc1c52)c43
fluorescence lifetime (in C1CCOC1): 3.88 ns | fluorescence lifetime (in Cc1ccccc1): 3.65 ns | fluorescence lifetime (in ClC(Cl)(Cl)Cl): 3.82 ns | fluorescence lifetime (in ClC(Cl)Cl): 3.77 ns | fluorescence lifetime (in ClCCl): 4.17 ns | fluorescence lifetime (in c1ccncc1): 4.01 ns

fluorescence lifetime (in CC1CCCCC1): 1.93 ns | fluorescence lifetime (in CC#N): 2.03 ns | fluorescence lifetime (in CO): 2.03 ns
Compound: COC(=O)C(NC(=O)OC(C)(C)C)c1ccc2oc(-c3cc(OC)ccc3OC)nc2c1 (stereo not given)

fluorescence lifetime (in ClC(Cl)Cl): 6.62 ns
Compound: c1ccc(N(c2ccccc2)c2ccc(-c3ccc(-c4ccc(-c5cccs5)c5nsnc45)s3)cc2)cc1

fluorescence lifetime (in ClCCl): 2.4 ns
Compound: COc1cc(OC)c2cc(C#N)c(=N)oc2c1

fluorescence lifetime (in ClCCl): 17.9 ns
Compound: CCN(CC)c1ccc2c(c1)oc(=O)c1cc3c(-c4ccccc4)nn(-c4ccccc4)c3nc12

fluorescence lifetime (in C1CCOC1): 1.37 ns
Compound: COc1ccc(C2=C(c3ccc(OC)cc3)[Si](c3ccccc3)(c3ccccc3)c3ccccc32)cc1

fluorescence lifetime (in CO): 17.3 ns
Compound: O=C(O)CCCCCn1c2ccc(Br)cc2c(=O)c2cc3c(cc21)c(=O)c1cc(Br)ccc1n3CCCCCC(=O)O

fluorescence lifetime (in CO): 0.843 ns
Compound: CC1(C)C(/C=C/C2=C(Oc3ccc(CCN=C=S)cc3F)C(=C/C=C3/N(CCCS(=O)(=O)[O-])c4ccccc4C3(C)C)/CCC2)=[N+](CCCS(=O)(=O)[O-])c2ccccc21

fluorescence lifetime (in O): 3.6 ns
Compound: CC[n+]1nc2cc3c4c(c2c2ccccc21)CCCN4CCC3

fluorescence lifetime (in CC#N): 0.2 ns
Compound: Cc1cccc(C)c1Nc1ccc(/C=C/c2ccc3ccccc3c2)cc1

Compound: CCC1=C(C)C2=C(C)c3c(I)c(I)cn3[B-](F)(F)[N+]2=C1C
fluorescence lifetime (in C1CCCCC1): 0.259 ns | fluorescence lifetime (in CC(C)=O): 0.127 ns | fluorescence lifetime (in CCO): 0.125 ns | fluorescence lifetime (in CCOC(C)=O): 0.16 ns | fluorescence lifetime (in CO): 0.122 ns | fluorescence lifetime (in OCC(F)(F)F): 0.147 ns

fluorescence lifetime (in ClCCl): 1.74 ns
Compound: CC(C)(C)NC(=O)c1cccc2ccc3c4ccccc4c4ccccc4c3c12

Compound: O=C(c1ccc(N2c3ccccc3Sc3ccccc32)cc1)c1ccc2sc3ccccc3c2c1
fluorescence lifetime (in c1ccc2c(c1)c1ccccc1n2-c1ccc(-c2ccc(-n3c4ccccc4c4ccccc43)cc2)cc1): 37.4 ns

fluorescence lifetime (in C1CCCCC1): 4.4 ns | fluorescence lifetime (in CC#N): 1.2 ns
Compound: COc1cc(OC)c2c(c1)C(=O)c1ccc(OC)cc1-2
